Laboratory results from ChEMBL document CHEMBL6114969, “Ultra-short lipopeptides containing d-amino acid exhibiting excellent stability and antibacterial activity against gram-positive bacteria” (Eur J Med Chem, 2025).
Converted amounts (≈) assume the structure as drawn. The source made the active and inactive calls. The rule behind the calls is not given here.

What was measured:
[1] = test system: Staphylococcus aureus; experiment: Antibacterial activity against Staphylococcus aureus ATCC 25923 incubated for 18 to 24 hrs by broth microdilution method; assay type: functional; conditions: time 18-24 hrs
[2] = test system: Staphylococcus epidermidis; experiment: Antibacterial activity against Staphylococcus epidermidis ATCC 12228 incubated for 18 to 24 hrs by broth microdilution method; assay type: functional; conditions: time 18-24 hrs
[3] = test system: Staphylococcus aureus; experiment: Antibacterial activity against methicillin-resistant Staphylococcus aureus ATCC 33591 incubated for 18 to 24 hrs by broth microdilution method; assay type: functional; conditions: time 18-24 hrs
[4] = test system: Enterococcus faecalis; experiment: Antibacterial activity against Enterococcus faecalis ATCC 29212 incubated for 18 to 24 hrs by broth microdilution method; assay type: functional; conditions: time 18-24 hrs
[5] = test system: Staphylococcus aureus; experiment: Antibacterial activity against Staphylococcus aureus ATCC 29213 incubated for 18 to 24 hrs by broth microdilution method; assay type: functional; conditions: time 18-24 hrs
[6] = test system: Staphylococcus aureus; experiment: Antibacterial activity against methicillin-resistant Staphylococcus aureus ATCC 33591 assessed as fold change in MIC incubated for 18 to 24 hrs in presence of NaCl by broth microdilution method; assay type: functional; conditions: time 18-24 hrs
[7] = test system: Staphylococcus aureus; experiment: Antibacterial activity against methicillin-resistant Staphylococcus aureus ATCC 33591 incubated for 18 to 24 hrs in presence of 1 mg/ml of pepsin by broth microdilution method; assay type: functional; conditions: time 18-24 hrs
[8] = test system: Staphylococcus aureus; experiment: Antibacterial activity against methicillin-resistant Staphylococcus aureus ATCC 33591 incubated for 18 to 24 hrs in presence of 1 mg/ml of chymotrypsin by broth microdilution method; assay type: functional; conditions: time 18-24 hrs
[9] = Retention time of compound by RP-HPLC analysis; assay type: physicochemical
[10] = test system: Staphylococcus aureus; experiment: Antibacterial activity against methicillin-resistant Staphylococcus aureus ATCC 33591 assessed as fold change in MIC incubated for 18 to 24 hrs in presence of 10 percent mouse serum by broth microdilution method; assay type: functional; conditions: time 18-24 hrs
[11] = test system: Staphylococcus aureus; experiment: Antibacterial activity against methicillin-resistant Staphylococcus aureus ATCC 33591 incubated for 18 to 24 hrs in presence of 2 mg/ml of chymotrypsin by broth microdilution method; assay type: functional; conditions: time 18-24 hrs
[12] = test system: Staphylococcus aureus; experiment: Antibacterial activity against methicillin-resistant Staphylococcus aureus ATCC 33591 incubated for 18 to 24 hrs in presence of 2 mg/ml of pepsin by broth microdilution method; assay type: functional; conditions: time 18-24 hrs
[13] = test system: Staphylococcus aureus; experiment: Antibacterial activity against methicillin-resistant Staphylococcus aureus ATCC 33591 incubated for 18 to 24 hrs in presence of 0.5 mg/ml of trypsin by broth microdilution method; assay type: functional; conditions: time 18-24 hrs
[14] = test system: Staphylococcus aureus; experiment: Antibacterial activity against methicillin-resistant Staphylococcus aureus ATCC 33591 assessed as fold change in MIC incubated for 18 to 24 hrs in presence of 10 percent FBS by broth microdilution method; assay type: functional; conditions: time 18-24 hrs
[15] = test system: Staphylococcus aureus; experiment: Antibacterial activity against methicillin-resistant Staphylococcus aureus ATCC 33591 incubated for 18 to 24 hrs in presence of 0.5 mg/ml of pepsin by broth microdilution method; assay type: functional; conditions: time 18-24 hrs
[16] = Hemolytic activity in mouse Red blood cells incubated for 1 hr by absorbance based analysis; assay type: toxicity, cell-based; conditions: erythrocyte
[17] = test system: Staphylococcus aureus; experiment: Antibacterial activity against methicillin-resistant Staphylococcus aureus ATCC 33591 incubated for 18 to 24 hrs in presence of 0.5 mg/ml of chymotrypsin by broth microdilution method; assay type: functional; conditions: time 18-24 hrs
[18] = test system: Staphylococcus aureus; experiment: Antibacterial activity against methicillin-resistant Staphylococcus aureus ATCC 33591 incubated for 18 to 24 hrs in presence of 2 mg/ml of trypsin by broth microdilution method; assay type: functional; conditions: time 18-24 hrs
[19] = test system: Staphylococcus aureus; experiment: Antibacterial activity against methicillin-resistant Staphylococcus aureus ATCC 33591 assessed as fold change in MIC incubated for 18 to 24 hrs in presence of MgCl2 by broth microdilution method; assay type: functional; conditions: time 18-24 hrs
[20] = test system: Staphylococcus aureus; experiment: Antibacterial activity against methicillin-resistant Staphylococcus aureus ATCC 33591 incubated for 18 to 24 hrs in presence of 1 mg/ml of trypsin by broth microdilution method; assay type: functional; conditions: time 18-24 hrs
[21] = test system: Staphylococcus aureus; experiment: Antibacterial activity against polymyxin B-resistant methicillin-resistant Staphylococcus aureus ATCC 33591 incubated for 18 to 24 hrs; assay type: functional; conditions: time 18-24 hrs
[22] = test system: Staphylococcus aureus; experiment: Antibacterial activity against gentamicin-resistant methicillin-resistant Staphylococcus aureus ATCC 33591 incubated for 18 to 24 hrs; assay type: functional; conditions: time 18-24 hrs
[23] = test system: Staphylococcus aureus; experiment: Antibacterial activity against gentamicin-resistant Staphylococcus aureus ATCC 25923 incubated for 18 to 24 hrs; assay type: functional; conditions: time 18-24 hrs
[24] = test system: Staphylococcus aureus; experiment: Antibacterial activity against ciprofloxacin-resistant methicillin-resistant Staphylococcus aureus ATCC 33591 incubated for 18 to 24 hrs; assay type: functional; conditions: time 18-24 hrs
[25] = test system: Staphylococcus aureus; experiment: Antibacterial activity against ciprofloxacin-resistant Staphylococcus aureus ATCC 25923 incubated for 18 to 24 hrs; assay type: functional; conditions: time 18-24 hrs
[26] = test system: Staphylococcus aureus; experiment: Induction of drug resistance in Staphylococcus aureus ATCC 25923 at sub-MIC measured after 2 passages; assay type: functional, organism-based
[27] = test system: Staphylococcus aureus; experiment: Antibacterial activity against polymyxin B-resistant Staphylococcus aureus ATCC 25923 incubated for 18 to 24 hrs; assay type: functional; conditions: time 18-24 hrs
[28] = test system: Staphylococcus aureus; experiment: Antibacterial activity against drug-resistant methicillin-resistant Staphylococcus aureus ATCC 33591 incubated for 18 to 24 hrs; assay type: functional; conditions: time 18-24 hrs
[29] = test system: Staphylococcus aureus; experiment: Antibacterial activity against drug-resistant Staphylococcus aureus ATCC 25923 incubated for 18 to 24 hrs; assay type: functional; conditions: time 18-24 hrs

CN[C@H](CC(C)C)C(=O)N[C@H]1C(=O)N[C@@H](CC(N)=O)C(=O)N[C@H]2C(=O)N[C@H]3C(=O)N[C@H](C(=O)N[C@H](C(=O)O)c4cc(O)cc(O)c4-c4cc3ccc4O)[C@H](O)c3ccc(c(Cl)c3)Oc3cc2cc(c3O[C@@H]2O[C@H](CO)[C@@H](O)[C@H](O)[C@H]2O[C@H]2C[C@](C)(N)[C@H](O)[C@H](C)O2)Oc2ccc(cc2Cl)[C@H]1O [VANCOMYCIN]
MIC [1]: ≤ 0.5 µM
MIC [2]: 1 µM (≈ 1.45 µg/mL)
MIC [3]: ≤ 0.5 µM
MIC [4]: 2 µM (≈ 2.9 µg/mL)
MIC [5]: ≤ 0.5 µM

CCCCCCCCCCCC(=O)N[C@H](CCCNC(=N)N)C(=O)N[C@@H](CCCNC(=N)N)C(=O)N[C@@H](Cc1c[nH]c2ccccc12)C(=O)O
MIC [1]: 4 µM (≈ 2.8 µg/mL)
fold change (FC) [6]: <3
MIC [7]: 16 µM
MIC [8]: 32 µM
MIC [2]: 2 µM (≈ 1.4 µg/mL)
Retention_time [9]: 19.259 min
fold change (FC) [10]: 4
MIC [11]: 128 µM
MIC [12]: 32 µM
MIC [13]: 64 µM
fold change (FC) [14]: 8
MIC [15]: 8 µM
HC10 [16]: 64 µM
MIC [17]: 16 µM
MIC [3]: 4 µM (≈ 2.8 µg/mL)
MIC [18]: 128 µM
fold change (FC) [19]: <3
MIC [4]: 8 µM (≈ 5.59 µg/mL)
MIC [5]: 4 µM (≈ 2.8 µg/mL)
MIC [20]: 64 µM

CCCCCCCCCCCC(=O)N[C@@H](CCCNC(=N)N)C(=O)N[C@H](CCCNC(=N)N)C(=O)N[C@@H](Cc1c[nH]c2ccccc12)C(=O)O
MIC [1]: 4 µM (≈ 2.8 µg/mL)
fold change (FC) [6]: <3
MIC [7]: 64 µM
MIC [8]: 32 µM
MIC [2]: 2 µM (≈ 1.4 µg/mL)
Retention_time [9]: 18.997 min
fold change (FC) [10]: 4
MIC [11]: 32 µM
MIC [12]: 64 µM
MIC [13]: 16 µM
fold change (FC) [14]: 8
MIC [15]: 64 µM
HC10 [16]: 128 µM
MIC [17]: 16 µM
MIC [3]: 4 µM (≈ 2.8 µg/mL)
MIC [18]: 32 µM
fold change (FC) [19]: <3
MIC [4]: 8 µM (≈ 5.59 µg/mL)
MIC [5]: 4 µM (≈ 2.8 µg/mL)
MIC [20]: 32 µM

CCCCCCCCCCCC(=O)N[C@@H](CCCNC(=N)N)C(=O)N[C@@H](CCCNC(=N)N)C(=O)N[C@H](Cc1c[nH]c2ccccc12)C(=O)O
MIC [1]: 4 µM (≈ 2.8 µg/mL)
fold change (FC) [6]: <3
MIC [7]: 128 µM
MIC [8]: > 128 µM
MIC [2]: 2 µM (≈ 1.4 µg/mL)
Retention_time [9]: 18.476 min
fold change (FC) [10]: 4
MIC [11]: > 128 µM
MIC [12]: 128 µM
MIC [13]: > 128 µM
fold change (FC) [14]: 8
MIC [15]: 16 µM
HC10 [16]: 128 µM
MIC [17]: > 128 µM
MIC [3]: 4 µM (≈ 2.8 µg/mL)
MIC [18]: > 128 µM
fold change (FC) [19]: <3
MIC [4]: 16 µM (≈ 11.2 µg/mL)
MIC [5]: 4 µM (≈ 2.8 µg/mL)
MIC [20]: > 128 µM

CCCCCCCCCCCC(=O)N[C@H](CCCNC(=N)N)C(=O)N[C@H](CCCNC(=N)N)C(=O)N[C@@H](Cc1c[nH]c2ccccc12)C(=O)O
MIC [1]: 4 µM (≈ 2.8 µg/mL)
fold change (FC) [6]: <3
MIC [7]: 8 µM
MIC [8]: 64 µM
MIC [2]: 2 µM (≈ 1.4 µg/mL)
Retention_time [9]: 18.527 min
fold change (FC) [10]: 8
MIC [11]: 64 µM
MIC [12]: 32 µM
MIC [13]: 32 µM
fold change (FC) [14]: 8
MIC [15]: 4 µM
HC10 [16]: 128 µM
MIC [17]: 32 µM
MIC [3]: 4 µM (≈ 2.8 µg/mL)
MIC [18]: 64 µM
fold change (FC) [19]: <3
MIC [4]: 8 µM (≈ 5.59 µg/mL)
MIC [5]: 4 µM (≈ 2.8 µg/mL)
MIC [20]: 32 µM

CCCCCCCCCCCC(=O)N[C@H](CCCNC(=N)N)C(=O)N[C@@H](CCCNC(=N)N)C(=O)N[C@H](Cc1c[nH]c2ccccc12)C(=O)O
MIC [1]: 4 µM (≈ 2.8 µg/mL)
fold change (FC) [6]: <3
MIC [7]: 8 µM
MIC [8]: 8 µM
MIC [2]: 2 µM (≈ 1.4 µg/mL)
Retention_time [9]: 19.092 min
fold change (FC) [10]: 4
MIC [11]: 8 µM
MIC [12]: 8 µM
MIC [13]: 8 µM
fold change (FC) [14]: 8
MIC [15]: 4 µM
HC10 [16]: 128 µM
MIC [17]: 8 µM
MIC [3]: 4 µM (≈ 2.8 µg/mL)
MIC [18]: 32 µM
fold change (FC) [19]: <3
MIC [4]: 16 µM (≈ 11.2 µg/mL)
MIC [5]: 4 µM (≈ 2.8 µg/mL)
MIC [20]: 16 µM

CCCCCCCCCCCC(=O)N[C@@H](CCCNC(=N)N)C(=O)N[C@H](CCCNC(=N)N)C(=O)N[C@H](Cc1c[nH]c2ccccc12)C(=O)O
MIC [1]: 4 µM (≈ 2.8 µg/mL)
fold change (FC) [6]: <3
MIC [7]: 8 µM
MIC [8]: 8 µM
MIC [2]: 2 µM (≈ 1.4 µg/mL)
Retention_time [9]: 19.303 min
fold change (FC) [10]: 4
MIC [11]: 32 µM
MIC [12]: 16 µM
MIC [13]: 128 µM
fold change (FC) [14]: 8
MIC [15]: 4 µM
HC10 [16]: 64 µM
MIC [17]: 8 µM
MIC [3]: 4 µM (≈ 2.8 µg/mL)
MIC [18]: > 128 µM
fold change (FC) [19]: <3
MIC [4]: 16 µM (≈ 11.2 µg/mL)
MIC [5]: 4 µM (≈ 2.8 µg/mL)
MIC [20]: > 128 µM

O=C(O)c1cn(C2CC2)c2cc(N3CCNCC3)c(F)cc2c1=O [CIPROFLOXACIN]
MIC [1]: 1 µM (≈ 0.331 µg/mL)
MIC [21]: > 128 µM
MIC [22]: 128 µM (≈ 42.4 µg/mL)
MIC [2]: ≤ 0.5 µM
MIC [23]: 128 µM (≈ 42.4 µg/mL)
MIC [24]: 8190 µM (≈ 2710 µg/mL)
MIC [25]: 8190 µM (≈ 2710 µg/mL)
Activity [26]: Active
MIC [27]: > 128 µM
MIC [3]: 256 µM (≈ 84.8 µg/mL)
MIC [4]: 2 µM (≈ 0.663 µg/mL)
MIC [5]: 1 µM (≈ 0.331 µg/mL)
MIC [28]: > 128 µM
MIC [29]: > 128 µM
